According to patent publication US10509041B2, “Glucose derivative, and cell imaging method and imaging agent using said derivative” (HIROSAKI UNIVERSITY, priority 2014, dated 2019):

Assays:
[1] = test system: neuronal cells of the substantia nigra pars reticulate of the midbrain; assay: Fluorescent imaging of acutely isolated normal neuronal cells; type: cell-based, mouse; conditions: 3 minutes, 8 minutes after start of washout
Protocol: The whole amount of the 0.5 mg CLG vial was recovered using 0.73 mL in total of 10% DMSO and dissolved (100 μM) by addition to 14.79 ml of a HEPES solution for image acquisition according to the method described in Non Patent Literature 2. […]
150 mM NaCl, 5 mM KCl, 1 mM MgCl2, 2 mM CaCl2, and 10 mM HEPES (the pH of the solution was adjusted to 7.4 with a 1 M tris(2-amino-2-hydroxymethyl-1,3-propanediol) solution). The concentration of glucose was set to 10 mM. 0.1 mM carbenoxolone (Sigma-Aldrich, #C4790) was added thereto for the purpose of inhibiting the entrance and exit of fluorescently labeled glucose by way of gap junction/hemichannel. This HEPES solution for image acquisition was used for preparing the CLG solution and the mixed solution with the additional fluorescent sugar derivative.
Neuronal cells […] to the method described in the previous reports of the inventors (WO2010/16587 (Patent Literature 2)) and (WO2012/133688 (Patent Literature 4)) and attached to each glass cover slip coated with poly-L-lysine. Then, the glass cover slip was transferred into the HEPES solution for image acquisition in a perfusion chamber loaded on a stage of a fluorescence microscope, followed by observation.
A silicon plate of 1 mm thickness bored to have a streamline-shaped hole (10 mm wide x 35 mm long) was placed via cover glass onto an aluminum heating control platform (Warner Instruments) having a round hole (diameter: 18 mm) for an objective lens at the bottom, and allowed to be in close contact with the cover glass.
The HEPES solution for image acquisition was warmed in advance in an aluminum syringe heater and supplied to the perfusion chamber through hydrostatic pressure. The perfusion rate was adjusted to 1.3±0.2 mL/min using a flow rate adjuster. Immediately before being introduced to the perfusion chamber, the solution was rewarmed via an inline heater so that the actually measured temperature of the perfusate in an observation region in the chamber was adjusted to 32.5±1° C. The CLG/2-TRLG mixed solution was able to be supplied in the same way as above and was switched with the HEPES solution for image acquisition using an electromagnetic valve capable of controlling the opening and closing of the channel. The solution was removed using a vacuum pump capable of controlling suction pressure.
The fluorescence microscope used was NIKON ECLIPS-Ti, and images were acquired with a CCD camera Retiga 2000R.
CLG and 2-TRLG were each detected using the following filter cassette.
Excitation 360/40 nm, Dichroic mirror 400 nm, Emission 460/50 nm.
Excitation 567/15 nm, Dichroic mirror 593 nm, Emission 593 nm Long pass.
The objective lens used in this method was ×20 dry lens (Nikon Plan S Fluor). The images were acquired at 1600×1200 pixels. […]

[2] = test system: MIN6 cell masses (spheroids); assay: Fluorescent imaging of tumor cell masses (spheroids) of MIN6 cells with mixed fluorescent glucose derivative solutions; type: cell-based, mouse; conditions: 100 μM CDG+100 μM 2-NBDLG+20 μM 2-TRLG mixed solution, 3 minutes, 6 minutes after start of washout, culture day 17
Protocol: A fluorescent mixed solution containing 100 μM CDG, 100 μM 2-NBDLG, and 20 μM 2-TRLG (CDG/2-NBDLG/2-TRLG) was administered at 37° C. for 3 minutes to MIN6 cell masses (spheroids) at culture day 17, and fluorescent imaging was conducted.
10 μL of a culture solution containing MIN6 cells suspended at a density of 6×10^4 cells/mL was added dropwise onto each glass cover slip, and then, the glass cover slip was left standing for 40 minutes in an incubator for fixation to the glass surface. The cells were cultured by the addition of 3 mL of a culture solution (600 cells/slip). Spheroids were formed by continuing the culture for 15 to 17 days. Half the amount of the culture solution was replaced with a fresh one once every three days.
The MIN6 cells used were cells kindly provided by professor Junichi Miyazaki (Osaka University) and subcultured 6 to 10 times. Half the amount of the culture solution was replaced with a fresh one once every two days.
13.4 g of high glucose-containing Dulbecco's modified Eagle's Medium (DMEM-HG) (Sigma-Aldrich, #D5648), 3.4 g of NaHCO3, and 5 μL of 2-mercaptoethanol were dissolved in 1 L of ultrapure water, and the pH of the solution was adjusted to 7.30 to 7.35 in a CO2 incubator of 37° C. The culture solution was supplemented with fetal bovine serum (Hyclone, Cat# SH30070.03) at a final concentration of 10% and penicillin-streptomycin at a final concentration of 0.5%.
The whole amount of the 0.5 mg CDG vial was recovered using 0.73 mL in total of 10% DMSO and dissolved by addition to 7.0 ml of a KRB solution for image acquisition according to the method described in Non Patent Literature 2.
The whole amount of one 0.5 mg 2-NBDLG vial was dissolved in 7.3 mL of a KRB solution for image acquisition.
The CDG solution and the 2-NBDLG solution were mixed at a ratio of 1:1. The whole amount of the 0.2 mg 2-TRLG vial was recovered using 130 μL in total of DMSO and mixed with 13 ml of the CDG+2-NBDLG mixed solution according to the method described in Non Patent Literature 2 (final concentration: 100 μM CDG+100 μM 2-NBDLG+20 μM 2-TRLG mixed solution). […]
The glass cover slip with the cultured MIN6 cells was transferred into the KRB solution for image acquisition in a perfusion chamber loaded on a stage of a fluorescence microscope, followed by measurement. […]
The KRB solution for image acquisition was warmed in advance in an aluminum syringe heater and supplied to the perfusion chamber through hydrostatic pressure. […] Immediately before being introduced to the perfusion chamber, the solution was rewarmed via an inline heater so that the actually measured temperature of the perfusate in an observation region in the chamber was adjusted to 36±1° C. […]

[3] = Fluorescence spectrum (excitation and fluorescence maxima); type: physicochemical
Excerpt: The fluorescence spectra of CDG synthesized in (1) and QDG synthesized in (2) were compared with the fluorescence spectrum of 2-NBDLG (manufactured by Peptide Institute, Inc.).
The numeric values described above the graph denote the fluorescence maximum of CDG and QDG, respectively. It is evident that the fluorescence maximum was largely shifted to shorter wavelength as compared with the fluorescence maximum of 2-NBDLG present around 550 nm.

[4] = test system: mouse insulinoma cells (MIN6); assay: Increase in fluorescence intensity (uptake) after administration of fluorescent glucose derivative to MIN6 cells, influence of cytochalasin B (CB) or phloretin (PHT), fluorescence microplate reader; type: cell-based; conditions: QDG final concentration 100 NM as printed, Ex 354 nm, Em 435 nm

| Molecule | maximum fluorescence wavelength (Em max) [3] | maximum excitation wavelength (Ex max) [3] | other results |
| --- | --- | --- | --- |
| 2-Texas Red-2-amino-2-deoxy-L-glucose [Compound 2-TRLG, reference compound] |  |  | uptake into normal neuronal cells ([1]; 100 μM CDG+20 μM 2-TRLG mixed solution, 14-day-old mouse): not taken into the normal neuronal cells; uptake into normal neuronal cells ([1]; 100 μM CLG+20 μM 2-TRLG mixed solution, 21-day-old mouse): not taken into the normal neuronal cells; uptake in the central portion of the spheroid [2]: strong uptake |
| O=[N+]([O-])c1ccc(NC2C(O)OC(CO)[C@H](O)C2O)c2nonc12 (stereo partly drawn) [Compound 2-NBDLG, 2-[N-(7-nitrobenz-2-oxa-1,3-diazol-4-yl)amino]-2-deoxy-L-glucose, reference compound] | around 550 nm |  | uptake into cells of MIN6 spheroids, intracellular localization [2]: strongly taken into the cytoplasm |
| Cc1cc2ccc(NC3C(O)OC(CO)[C@@H](O)[C@@H]3O)cc2oc1=O (stereo partly drawn) [Compound 3-MCDG, 2-deoxy-2-(2-oxo-3-methyl-2H-chromen-7-yl)amino-D-glucose] | 460.0 nm | 361.0 nm |  |
| O=c1oc2cc(NC3C(O)OC(CO)[C@@H](O)[C@@H]3O)ccc2cc1C(F)(F)F (stereo partly drawn) [Compound 3-TFMCDG, 2-deoxy-2-(2-oxo-3-trifluoromethyl-2H-chromen-7-yl)amino-D-glucose] | 455.0 nm | 381.0 nm |  |
| Cc1cc(=O)oc2cc(NC3C(O)OC(CO)[C@@H](O)[C@@H]3O)ccc12 (stereo partly drawn) [Compound 4-MCDG, 2-deoxy-2-(2-oxo-4-methyl-2H-chromen-7-yl)amino-D-glucose] | 446.0 nm | 362.0 nm |  |
| O=c1cc(C(F)(F)F)c2ccc(NC3C(O)OC(CO)[C@@H](O)C3O)cc2o1 (stereo partly drawn) [Compound 4-TFMCDG, 2-deoxy-2-(2-oxo-2H-4-trifluoromethyl-chromen-7-yl)amino-D-glucose] | 500.0 nm | 380.0 nm |  |
| O=c1ccc2ccc(NC3C(O)OC(CO)[C@@H](O)[C@@H]3O)cc2[nH]1 (stereo partly drawn) [QDG, 2-deoxy-2-(2-oxo-1,2-dihydroquinolin-7-yl)amino-D-glucose] | 423.0 nm | 353.5 nm | effect of CB on increase in fluorescence intensity caused by administration ([4]; CB as in Example 11): significantly inhibited; effect of PHT on increase in fluorescence intensity caused by administration ([4]; PHT as in Example 12): more strongly inhibited |
| O=c1ccc2ccc(NC3C(O)OC(CO)[C@H](O)[C@H]3O)cc2[nH]1 (stereo partly drawn) [QLG, 2-deoxy-2-(2-oxo-1,2-dihydroquinolin-7-yl)amino-L-glucose] | 423.0 nm | 353.5 nm |  |
